Reference: patent US20090105172A1, “Stabilized Aptamers to PSMA and Their Use as Prostate Cancer Therapeutics” (priority 2005, published 2009)
Strand notation (5' to 3'): a small letter for the sugar, then the base; units joined by * are phosphorothioate-linked, units joined directly phosphodiester-linked; [ ] holds rarer units or linkages, { } end groups; capitals alone tell only the bases. {NH2} = amine modification, hexylamine terminal group for chemical coupling; [invdT] = inverted (3'-3') thymidine; d = 2'-deoxy (DNA); m = 2'-O-methyl; r = 2'-OH (RNA); f = 2'-fluoro

What was measured:
[1] = docetaxel in combination with prednisone (cited clinical trial, not the aptamer), every three weeks; cited from earlier work
[2] = Plasma stability time course assay; assay type: in vitro ADME; settings: 95% human plasma, 37° C.
Protocol: Plasma stability of each construct was measured using a plasma stability time course assay over 0, 1, 3, 10, 30, and 100 hours. A reaction was set up for each aptamer tested in an eppendorf tube using 95% human plasma (20 μl per time point), an appropriate concentration of aptamer (determined by the highest predicted dosing level (CMax)), and a sufficient amount of spiked 5′-end labeled aptamer such that a 1:10 dilution of the reaction will be over 1000 cpm, brought to total volume with 1×PBS. When assembling the reaction, the plasma was added last, and the reactions were immediately added to a 37° C. heat block. A reaction for each aptamer tested containing 1×PBS instead of plasma was used as a 0 hour time point. At each designated time point, 20 μl was withdrawn from each reaction and added to an appropriately labeled eppendorf tube containing 200 μl of formamide loading dye, and was immediately snap frozen in liquid nitrogen and stored at −20° C. After all the samples were collected 20 μl of each plasma sample/loading dye was aliquoted into separate tubes, and 2 μl of 1% SDS was added to each tube (final SDS concentration 0.1%). The samples containing 0.1% SDS were heated at 90° C. for 10-15 minutes. […]
The percentage of the parent aptamer remaining for each time-point was determined by quantifying the parent aptamer band and dividing by the total counts in the lane. […]

[3] = molecular target: PSMA NAALADase activity (Homo sapiens, UniProt Q04609); test: NAALADase inhibition assay; assay type: biochemical; settings: relative to parent
Protocol: These point mutant constructs were assessed for activity in terms of inhibition of PSMA NAALADase activity. The NAALADase assay was performed in 96 well format. PSMA aptamers were serially diluted in 1× reaction buffer (40 mM Tris-HCl, pH 7.4, 0.1 mM ZnSO4, 0.1 mg/in L BSA) in a standard 96 well plate to be tested at a final concentration range from 30 pM to 1 μM. The enzyme was prepared by diluting 30 μL of 100 nM PSMA into 8 mL of reaction buffer, and kept cool on ice. The substrate was prepared by adding 19 μl of NAAG [Glutamate-3,4-^3H], 50.8 Ci/mmol, 19.7 μM (Perkin-Elmer, Wellesley, Mass., NET1082) into 2.2 mL of reaction buffer.
Following preparation of all reagents, 4 μl of each serially diluted aptamer was added to a separate 96 well plate (the reaction plate). 76 μl of diluted enzyme was added to the corresponding wells containing aptamer. 80 μl of reaction buffer was added to one column of wells to serve as a background control. The diluted substrate and reaction plate were then moved to a room at 37° C. and allowed to equilibrate for 10 minutes. After temperature equilibration, 20 μl of the prepared substrate was added to each well using a 12 channel pipet for a final volume of 100 μl/well, and a final concentration of […] enzyme and 30 nM substrate per well. A column of wells containing enzyme and substrate only was used as a high control. The aptamer/enzyme/substrate reaction was incubated at 37° C. for 15 minutes, and stopped by the addition of 100 μl of quench buffer (100 mM sodium phosphate, pH 7.4, 2 mM EDTA).
To separate the cleavage products, […] and Glutamate, from the substrate, an AG 1-X8, 200-400 mesh, formate resin (BioRad, Hercules, Calif., # 140-1454) was used. The resin was prepared by forming a 1:1 slurry in H2O, and adding 140 μl per 96 well using a Multiscreen filter plate (Multiscreen, 1.2 μm filter plates (Millipore, Billerica, Mass., # MABVN1250)). […] The plate was sealed and read using a Packard Topcount Microplate Scintillation Counter. […]

[4] = test system: LNCaP cells (PSMA+); test: LNCaP FACS binding assay with fluorescein-labeled aptamers; assay type: cell-based; settings: FACS histogram
Protocol: To prepare aptamers for the FACS assay, PSMA aptamers were serially diluted (0-1 uM) in FACS buffer (1×DPBS w/Ca^++/Mg^++ (Gibco, Carlsbad, Calif.) supplemented with 10 mg/mL salmon sperm DNA & 0.2% Na Azide), in a V-bottom 96 well plate, at the concentrations to be tested. LNCaP and PC-3 cells (ATCC, Manassas, Va.) were harvested with trypsin, and 200,000 cells/well were counted, washed once with 1×DPBS (with Ca^++ and Mg^+) and resuspended in 200 μl of FACS Buffer. The 200 μl of cells in FACS buffer were added to individual wells of a new 96 well plate, pelleted by centrifugation (1300 rpm for 5 minutes), and resuspended in 100 μl of the appropriate concentration of diluted aptamer. FACS buffer, a-PSMA antibody (3C6) (Northwest Biotherapeutics, Bothell, Wash., Cat #: 60-5002) and an irrelevant fluorescein isothiocyanate (“FITC”) mouse IgG1 isotype control antibody (BD Pharmingen, San Diego, Calif., Cat#: 554679) were used as controls. The wells of aptamer/cell mixture were incubated at room temperature for 20-30 minutes.
After incubation, 180 μl of FACS buffer (plus 10 mg/mL ssDNA, and 0.2% Na Azide) was added to each well to quench the reaction and cells were pelleted by centrifugation.
Anti-fluorescein/Oregon Green®, rabbit IgG fraction, Alexa Fluor® 488 conjugate (Molecular Probes, Eugene, Oreg., Cat#: A11090) was diluted 1:100 in FACS buffer (100 μl/well) as the secondary antibody for the aptamer-FITC conjugates and FITC-mouse IgG isotype control. FITC Rat anti-mouse IgG1 (A85-1) (BD Pharmingen, San Diego, Calif., Cat#: 553443) was diluted in 1:100 in FACS Buffer as the secondary for the α-PSMA antibody. After centrifugation, the cell pellets were resuspended in 100 μl of the appropriate diluted secondary antibody, and incubated 10 minutes at room temperature. After incubation, 180 μl of FACS buffer was added to each well to quench the reaction, and cells were pelleted by centrifugation.
A tertiary antibody which recognizes the Alexa Fluor® 488 goat anti-rabbit IgG was prepared to further amplify the Alexa Fluor signal. Alexa Fluor® 488 goat anti-rabbit IgG (H+ L) (Molecular Probes, Eugene, Oreg., Cat#: A11034) was diluted 1:100 in FACS buffer, and the pelleted cells were resupsended in 100 μl of the tertiary antibody and incubated for 10 minutes at room temperature. […]
(§1) Cell samples were analyzed on a FACS Scan machine (Becton Dickinson, San Jose, Calif.) under the following parameters: FSC/SSC, FL-1/FSC, FL-3/FSC. The unstained and/or isotype controls were used to establish gating parameters, and the data was analyzed using Cell Quest Pro software version 5.1.1 (Becton Dickinson Immunocytometry Systems, San Jose, Calif.).

[5] = test system: PC-3 cells (PSMA−); test: FACS binding assay, control cell line; assay type: cell-based; settings: FACS histogram
Protocol: To prepare aptamers for the FACS assay, PSMA aptamers were serially diluted (0-1 uM) in FACS buffer (1×DPBS w/Ca^++/Mg^++ (Gibco, Carlsbad, Calif.) supplemented with 10 mg/mL salmon sperm DNA & 0.2% Na Azide), in a V-bottom 96 well plate, at the concentrations to be tested. LNCaP and PC-3 cells (ATCC, Manassas, Va.) were harvested with trypsin, and 200,000 cells/well were counted, washed once with 1×DPBS (with Ca^++ and Mg^+) and resuspended in 200 μl of FACS Buffer. The 200 μl of cells in FACS buffer were added to individual wells of a new 96 well plate, pelleted by centrifugation (1300 rpm for 5 minutes), and resuspended in 100 μl of the appropriate concentration of diluted aptamer. FACS buffer, a-PSMA antibody (3C6) (Northwest Biotherapeutics, Bothell, Wash., Cat #: 60-5002) and an irrelevant fluorescein isothiocyanate (“FITC”) mouse IgG1 isotype control antibody (BD Pharmingen, San Diego, Calif., Cat#: 554679) were used as controls. The wells of aptamer/cell mixture were incubated at room temperature for 20-30 minutes. […]
as §1

Sequence of PSMA NAALADase activity (Q04609 with tags, fused parts or gaps limits assumed): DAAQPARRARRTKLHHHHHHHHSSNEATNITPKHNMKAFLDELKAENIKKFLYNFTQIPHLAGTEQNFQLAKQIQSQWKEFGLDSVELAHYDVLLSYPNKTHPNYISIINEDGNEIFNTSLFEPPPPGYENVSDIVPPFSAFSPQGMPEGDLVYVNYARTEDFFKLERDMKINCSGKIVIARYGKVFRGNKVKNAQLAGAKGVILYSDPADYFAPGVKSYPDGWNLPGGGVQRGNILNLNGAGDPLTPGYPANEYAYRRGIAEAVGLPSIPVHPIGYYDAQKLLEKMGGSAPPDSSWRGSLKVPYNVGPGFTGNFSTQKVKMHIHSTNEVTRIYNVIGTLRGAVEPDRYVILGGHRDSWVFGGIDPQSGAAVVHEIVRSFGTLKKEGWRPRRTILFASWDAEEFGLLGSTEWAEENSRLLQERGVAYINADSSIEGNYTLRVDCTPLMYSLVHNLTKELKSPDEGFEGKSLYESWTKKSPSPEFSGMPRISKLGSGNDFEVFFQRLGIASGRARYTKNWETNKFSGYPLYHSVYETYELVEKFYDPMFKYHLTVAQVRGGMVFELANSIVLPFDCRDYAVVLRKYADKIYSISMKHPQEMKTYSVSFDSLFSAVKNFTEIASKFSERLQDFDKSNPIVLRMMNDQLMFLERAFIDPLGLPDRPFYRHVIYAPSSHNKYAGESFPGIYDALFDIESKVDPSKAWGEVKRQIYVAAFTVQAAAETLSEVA

In the case of CC(=O)O[C@@]12CO[C@@H]1C[C@H](O)[C@@]1(C)C(=O)[C@H](O)C3=C(C)[C@@H](OC(=O)[C@H](O)[C@@H](NC(=O)OC(C)(C)C)c4ccccc4)C[C@@](O)([C@@H](OC(=O)c4ccccc4)[C@H]21)C3(C)C [Taxotere, docetaxel], the “survival advantage over control group (mitoxantrone and prednisone)” value [1] is listed as “approximately 2.5 months”.

With “NH2-mCmGmGmAfCfCmGAAfCAmAmGmGmCfCfUGAfCfUfUfCfUAfUAfCfUAAmGmCmCmUAfCmGfUmUmCmCmG-3T ({NH2}-mCmGmGmAfCfCmGrArAfCrAmAmGmGmCfCfUrGrAfCfUfUfCfUrAfUrAfCfUrArAmGmCmCmUrAfCmGfUmUmCmCmG[invdT]; further chemistry not fully specified) [ARC1113, ribo-containing aptamer based on ARC 591 with fully-stabilized helical stems and a 3′-cap]” the “half life (T1/2) in plasma” value [2] was 20 h.

In the case of “mCmGmGmAfCfCmGdAdAfCmAmAmGmGmCfCfU-s-dGmAfCfUfUfCfUmAfUmAfCfUdAmAmGmCmCmUmAfCmGfUmUmCmCmG-3T (mCmGmGmAfCfCmGdAdAfCmAmAmGmGmCfCfU*dGmAfCfUfUfCfUmAfUmAfCfUdAmAmGmCmCmUmAfCmGfUmUmCmCmG[invdT]) [ARC1725, ribo-free version based on ARC591]”, the “activity in the NAALADase inhibition assay” value [3] is reported as “retained full activity” and the “half life (T1/2) in plasma” value [2] is reported as 11 h.

B1: GGGAGGACGAUGCGGACCGAAAAAGACCUGAfCfIUfCfUAfUAfCfUAAGfUfCfUAf CGfTUIJfCfCfCAGAfCGAfCfUfCGfCfCfCGA (nucleic acid)
chain: GGGAGGACGAUGCGGACCGAAAAAGACCUGACUUCUAUACUAAGUCUACGUUCCCAGACGACUCGCCCGA
modifications: 2'-fluoro at CU, RNA at AG, backbone not given here
notes: existing PSMA specific aptamer of rRfY composition from U.S. Ser. No. 09/978,969
For B1, the “binding to LNCaP (PSMA+) cells” value [4] was “binding to LNCaP (PSMA+) cells” and the “binding to PC-3 (PSMA−) cells” value [5] was “not to PC-3 (PSMA−) cells”.
